Test results taken from ChEMBL document CHEMBL1909046, “DrugMatrix in vitro pharmacology data”.

Assays:
[1] = biological target: Beta-2 adrenergic receptor (Homo sapiens, UniProt P07550); test: DRUGMATRIX: Adrenergic beta2 radioligand binding (ligand: [3H] CGP-12177); type: cell membranes, CHO, Membrane; settings: cho; Not Active = under 50% inhibition at 10 µM
[2] = DRUGMATRIX: ATPase, Na+/K+ enzyme inhibition (substrate: ATP); type: tissue-based, Sus scrofa, Heart; settings: Not Active = under 50% inhibition at 10 µM
[3] = biological target: T1, C-X-C chemokine receptor type 2 (Homo sapiens, UniProt P25025); type: cell membranes, CHO-K1, Membrane; settings: cho-k1; note: in other assays of this panel Not Active means under 50% inhibition at 10 µM
T1 sequence (P25025 whole entry): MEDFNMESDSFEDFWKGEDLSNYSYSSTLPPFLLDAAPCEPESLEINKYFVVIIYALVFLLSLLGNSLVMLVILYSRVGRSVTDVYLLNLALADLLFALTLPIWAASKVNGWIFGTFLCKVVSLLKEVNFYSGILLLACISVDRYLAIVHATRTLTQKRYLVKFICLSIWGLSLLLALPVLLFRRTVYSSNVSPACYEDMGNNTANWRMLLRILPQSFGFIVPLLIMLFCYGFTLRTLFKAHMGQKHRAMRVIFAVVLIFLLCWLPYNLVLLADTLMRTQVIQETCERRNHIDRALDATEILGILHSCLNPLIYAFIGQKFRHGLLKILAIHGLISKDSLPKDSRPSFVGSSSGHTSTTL

[4] = biological target: T2, 3-hydroxy-3-methylglutaryl-coenzyme A reductase (Homo sapiens, UniProt P04035); design: species or system Escherichia coli;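 note: enzyme inhibition assay of HMG-CoA reductase using radiolabeled [14C]HMG-CoA as substrate; in other assays of this panel Not Active means under 50% inhibition at 10 µM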
T2 sequence (P04035 whole entry): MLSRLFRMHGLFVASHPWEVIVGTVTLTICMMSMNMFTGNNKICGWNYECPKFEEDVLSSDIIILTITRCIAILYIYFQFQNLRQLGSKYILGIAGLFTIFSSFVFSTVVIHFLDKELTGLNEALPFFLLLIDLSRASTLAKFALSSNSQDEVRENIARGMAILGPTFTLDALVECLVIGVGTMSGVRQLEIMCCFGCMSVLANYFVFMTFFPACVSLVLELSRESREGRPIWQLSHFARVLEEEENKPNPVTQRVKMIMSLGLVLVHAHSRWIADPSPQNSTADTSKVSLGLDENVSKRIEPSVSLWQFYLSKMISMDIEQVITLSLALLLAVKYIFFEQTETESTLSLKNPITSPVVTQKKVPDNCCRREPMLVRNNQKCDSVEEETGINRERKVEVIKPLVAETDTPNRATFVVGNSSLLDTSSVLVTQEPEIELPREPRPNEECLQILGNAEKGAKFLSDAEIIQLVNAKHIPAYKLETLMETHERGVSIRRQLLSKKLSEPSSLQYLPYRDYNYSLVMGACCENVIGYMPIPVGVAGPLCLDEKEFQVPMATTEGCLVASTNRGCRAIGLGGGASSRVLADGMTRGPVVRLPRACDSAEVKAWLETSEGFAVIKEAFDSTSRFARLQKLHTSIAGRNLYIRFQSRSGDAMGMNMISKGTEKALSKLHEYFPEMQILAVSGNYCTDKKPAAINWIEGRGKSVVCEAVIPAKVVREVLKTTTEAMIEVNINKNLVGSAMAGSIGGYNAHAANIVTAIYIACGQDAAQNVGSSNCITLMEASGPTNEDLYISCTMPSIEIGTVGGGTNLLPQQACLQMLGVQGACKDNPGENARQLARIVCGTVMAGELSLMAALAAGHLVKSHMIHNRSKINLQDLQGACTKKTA

Insulin receptor = Insulin receptor (Rattus norvegicus, UniProt P15127); type: cell membranes, Wistar, Liver, Membrane; note: in other assays of this panel Not Active means under 50% inhibition at 10 µM
[5] = biological target: Protein kinase C alpha type (Homo sapiens, UniProt P17252); type: cell-based; settings: sf9;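 note: inhibition of PKCalpha kinase activity measured in an enzyme assay with histone as the phosphorylation substrate; in other assays of this panel Not Active means under 50% inhibition at 10 µM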
[6] = biological target: Protein phosphatase 3 catalytic subunit alpha (Homo sapiens, UniProt Q08209); design: species or system Escherichia coli
Cytochrome P450 3A4 = Cytochrome P450 3A4 (Homo sapiens, UniProt P08684); settings: bti-tn-5b1-4; note: in other assays of this panel Not Active means under 50% inhibition at 10 µM
[7] = biological target: Voltage-gated inwardly rectifying potassium channel KCNH2 (Homo sapiens, UniProt Q12809); settings: hek293; note: in other assays of this panel Not Active means under 50% inhibition at 10 µM
Sequence of Voltage-gated inwardly rectifying potassium channel KCNH2 (Q12809 whole entry): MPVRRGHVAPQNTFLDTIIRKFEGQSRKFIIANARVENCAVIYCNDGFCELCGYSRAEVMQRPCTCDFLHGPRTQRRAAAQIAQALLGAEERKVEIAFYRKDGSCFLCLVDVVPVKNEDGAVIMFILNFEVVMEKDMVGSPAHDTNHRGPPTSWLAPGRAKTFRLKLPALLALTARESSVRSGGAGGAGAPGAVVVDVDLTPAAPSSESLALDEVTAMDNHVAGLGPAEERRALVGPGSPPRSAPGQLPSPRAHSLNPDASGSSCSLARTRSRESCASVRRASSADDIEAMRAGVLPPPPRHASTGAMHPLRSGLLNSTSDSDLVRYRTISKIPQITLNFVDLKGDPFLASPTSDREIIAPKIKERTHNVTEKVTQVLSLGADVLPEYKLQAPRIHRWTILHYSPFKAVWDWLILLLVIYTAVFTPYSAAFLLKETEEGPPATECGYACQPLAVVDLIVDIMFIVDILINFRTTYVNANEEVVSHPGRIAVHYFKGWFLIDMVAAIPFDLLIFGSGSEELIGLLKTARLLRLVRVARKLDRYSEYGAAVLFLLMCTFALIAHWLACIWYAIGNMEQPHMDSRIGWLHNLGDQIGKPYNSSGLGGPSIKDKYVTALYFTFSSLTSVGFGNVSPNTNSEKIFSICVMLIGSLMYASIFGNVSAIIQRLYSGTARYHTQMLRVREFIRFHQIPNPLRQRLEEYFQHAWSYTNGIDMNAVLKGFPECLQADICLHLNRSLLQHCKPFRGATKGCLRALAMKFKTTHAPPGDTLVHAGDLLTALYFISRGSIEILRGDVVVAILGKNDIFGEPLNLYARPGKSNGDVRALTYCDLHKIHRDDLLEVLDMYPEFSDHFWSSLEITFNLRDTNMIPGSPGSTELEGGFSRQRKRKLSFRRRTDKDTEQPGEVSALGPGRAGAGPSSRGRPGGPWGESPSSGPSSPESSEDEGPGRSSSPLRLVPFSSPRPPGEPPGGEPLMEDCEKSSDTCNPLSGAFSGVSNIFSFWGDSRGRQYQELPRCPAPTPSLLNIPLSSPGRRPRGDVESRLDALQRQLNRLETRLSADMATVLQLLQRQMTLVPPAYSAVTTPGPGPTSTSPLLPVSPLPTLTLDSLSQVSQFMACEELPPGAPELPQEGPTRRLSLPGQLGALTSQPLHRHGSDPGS

Sequence of Insulin receptor (P15127 27-759 limits assumed): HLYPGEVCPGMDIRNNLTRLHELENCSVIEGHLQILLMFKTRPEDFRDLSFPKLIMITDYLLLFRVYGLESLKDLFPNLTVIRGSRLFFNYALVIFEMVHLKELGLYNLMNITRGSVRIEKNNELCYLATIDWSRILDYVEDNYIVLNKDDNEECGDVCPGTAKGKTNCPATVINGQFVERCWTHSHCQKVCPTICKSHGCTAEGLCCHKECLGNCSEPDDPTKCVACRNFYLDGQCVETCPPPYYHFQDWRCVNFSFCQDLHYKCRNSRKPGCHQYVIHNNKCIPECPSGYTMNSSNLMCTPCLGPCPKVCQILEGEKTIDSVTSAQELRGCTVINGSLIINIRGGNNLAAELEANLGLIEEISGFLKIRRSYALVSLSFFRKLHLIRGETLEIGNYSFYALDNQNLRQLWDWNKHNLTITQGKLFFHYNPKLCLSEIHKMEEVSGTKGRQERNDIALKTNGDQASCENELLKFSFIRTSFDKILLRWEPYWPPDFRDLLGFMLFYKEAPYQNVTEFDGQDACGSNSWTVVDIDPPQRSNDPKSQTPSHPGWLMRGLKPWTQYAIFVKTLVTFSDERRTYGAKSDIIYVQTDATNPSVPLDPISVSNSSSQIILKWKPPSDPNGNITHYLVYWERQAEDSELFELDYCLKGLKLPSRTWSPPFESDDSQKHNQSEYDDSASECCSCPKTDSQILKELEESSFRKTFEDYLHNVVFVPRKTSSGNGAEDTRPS
Sequence of Insulin receptor (P15127 764-1383 limits assumed): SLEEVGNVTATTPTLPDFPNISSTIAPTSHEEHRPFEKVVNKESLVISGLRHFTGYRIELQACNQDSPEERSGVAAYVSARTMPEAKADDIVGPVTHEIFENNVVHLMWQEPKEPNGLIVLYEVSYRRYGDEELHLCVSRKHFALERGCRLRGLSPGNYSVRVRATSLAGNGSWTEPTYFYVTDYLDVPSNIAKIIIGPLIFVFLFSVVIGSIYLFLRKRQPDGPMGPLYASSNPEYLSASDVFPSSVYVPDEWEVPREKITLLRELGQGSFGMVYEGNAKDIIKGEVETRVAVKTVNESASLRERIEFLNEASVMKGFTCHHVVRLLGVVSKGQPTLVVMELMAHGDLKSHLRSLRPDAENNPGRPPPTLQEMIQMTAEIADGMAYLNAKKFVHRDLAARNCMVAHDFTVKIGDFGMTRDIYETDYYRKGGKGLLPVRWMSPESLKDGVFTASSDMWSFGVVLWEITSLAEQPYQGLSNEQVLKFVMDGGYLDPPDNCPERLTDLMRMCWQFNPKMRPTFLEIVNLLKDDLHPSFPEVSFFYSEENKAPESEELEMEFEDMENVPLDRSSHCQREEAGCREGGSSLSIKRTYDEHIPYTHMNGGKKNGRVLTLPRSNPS
Sequence of Cytochrome P450 3A4 (P08684 whole entry): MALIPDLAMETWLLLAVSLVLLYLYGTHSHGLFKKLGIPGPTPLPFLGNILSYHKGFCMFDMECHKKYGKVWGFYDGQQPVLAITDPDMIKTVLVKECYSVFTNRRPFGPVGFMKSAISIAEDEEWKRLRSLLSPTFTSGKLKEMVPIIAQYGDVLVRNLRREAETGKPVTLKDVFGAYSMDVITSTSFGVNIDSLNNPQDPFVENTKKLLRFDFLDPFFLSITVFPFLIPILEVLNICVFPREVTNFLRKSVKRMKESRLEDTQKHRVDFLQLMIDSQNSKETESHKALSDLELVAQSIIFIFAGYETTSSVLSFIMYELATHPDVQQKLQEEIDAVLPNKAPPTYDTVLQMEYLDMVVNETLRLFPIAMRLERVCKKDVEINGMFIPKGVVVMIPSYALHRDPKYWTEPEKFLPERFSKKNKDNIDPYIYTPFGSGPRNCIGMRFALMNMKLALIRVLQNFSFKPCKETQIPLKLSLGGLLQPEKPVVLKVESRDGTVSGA

POVIDONE
Not Active: IC50 [1] | Ki [1] | IC50 [2] | Ki [2] | IC50 [3] | Ki [3] | IC50 [4] | Ki [4] | IC50 (Insulin receptor) | Ki (Insulin receptor) | IC50 [5] | Ki [5] | IC50 [6] | Ki [6] | IC50 (Cytochrome P450 3A4) | Ki (Cytochrome P450 3A4) | IC50 [7] | Ki [7]

C=C(Cl)Cl [1,1-DICHLOROETHENE]
Not Active: IC50 [1] | IC50 [2] | Ki [2] | IC50 [3] | IC50 [4] | IC50 (Insulin receptor) | IC50 [5] | IC50 [6] | IC50 (Cytochrome P450 3A4) | Ki (Cytochrome P450 3A4) | IC50 [7] | Ki [7]

CC(=O)[C@]1(O)Cc2c(O)c3c(c(O)c2[C@@H](O[C@H]2C[C@H](N)[C@H](O)[C@H](C)O2)C1)C(=O)c1ccccc1C3=O [IDARUBICIN]
Not Active: IC50 [1] | IC50 [2] | Ki [2] | IC50 [3] | IC50 [4] | IC50 (Insulin receptor) | IC50 [5] | IC50 [6] | IC50 (Cytochrome P450 3A4) | Ki (Cytochrome P450 3A4) | IC50 [7] | Ki [7]

NC(=O)CN1CCCC1=O
Not Active: IC50 [1] | IC50 [2] | Ki [2] | IC50 [3] | IC50 [4] | IC50 (Insulin receptor) | IC50 [5] | IC50 [6] | IC50 (Cytochrome P450 3A4) | Ki (Cytochrome P450 3A4) | IC50 [7] | Ki [7]

CO[C@H]1O[C@@H]2O[C@@]3(C)CC[C@H]4[C@H](C)CC[C@@H]([C@H]1C)[C@@]24OO3
Not Active: IC50 [1] | IC50 [2] | Ki [2] | IC50 [3] | IC50 [4] | IC50 (Insulin receptor) | IC50 [5] | IC50 [6] | IC50 (Cytochrome P450 3A4) | Ki (Cytochrome P450 3A4) | IC50 [7] | Ki [7]

CC12CCC(CC1)C(C)(C)O2 [EUCALYPTOL]
Not Active: IC50 [1] | IC50 [2] | Ki [2] | IC50 [3] | IC50 [4] | IC50 (Insulin receptor) | IC50 [5] | IC50 [6] | IC50 (Cytochrome P450 3A4) | Ki (Cytochrome P450 3A4) | IC50 [7] | Ki [7]

C[N+](C)(C)CCOC(N)=O.[Cl-] [CARBACHOL]
Not Active: IC50 [1] | IC50 [2] | Ki [2] | IC50 [3] | IC50 [4] | IC50 (Insulin receptor) | IC50 [5] | IC50 [6] | IC50 (Cytochrome P450 3A4) | Ki (Cytochrome P450 3A4) | IC50 [7] | Ki [7]

Oc1ncnc2[nH]ncc12 [ALLOPURINOL]
Not Active: IC50 [1] | IC50 [2] | Ki [2] | IC50 [3] | IC50 [4] | IC50 (Insulin receptor) | IC50 [5] | IC50 [6] | IC50 (Cytochrome P450 3A4) | Ki (Cytochrome P450 3A4) | IC50 [7] | Ki [7]

NCC(CC(=O)O)c1ccc(Cl)cc1 (stereo not given) [BACLOFEN]
Not Active: IC50 [1] | IC50 [2] | Ki [2] | IC50 [3] | IC50 [4] | IC50 (Insulin receptor) | IC50 [5] | IC50 [6] | IC50 (Cytochrome P450 3A4) | Ki (Cytochrome P450 3A4) | IC50 [7] | Ki [7]

O=C1CN(/N=C/c2ccc([N+](=O)[O-])o2)C(=O)N1 [NITROFURANTOIN]
Not Active: IC50 [1] | IC50 [2] | Ki [2] | IC50 [3] | IC50 [4] | IC50 (Insulin receptor) | IC50 [5] | IC50 [6] | IC50 (Cytochrome P450 3A4) | Ki (Cytochrome P450 3A4) | IC50 [7] | Ki [7]

CC12CCC(CC1=O)C2(C)C (stereo not given) [CAMPHOR]
Not Active: IC50 [1] | IC50 [2] | Ki [2] | IC50 [3] | IC50 [4] | IC50 (Insulin receptor) | IC50 [5] | IC50 [6] | IC50 (Cytochrome P450 3A4) | Ki (Cytochrome P450 3A4) | IC50 [7] | Ki [7]

Cc1c(N)nc([C@H](CC(N)=O)NC[C@H](N)C(N)=O)nc1C(=O)N[C@H](C(=O)N[C@H](C)[C@@H](O)[C@H](C)C(=O)N[C@H](C(=O)NCCc1nc(-c2nc(C(=O)NCCC[S+](C)C)cs2)cs1)[C@@H](C)O)[C@@H](O[C@@H]1O[C@@H](CO)[C@@H](O)[C@H](O)[C@@H]1O[C@H]1O[C@H](CO)[C@@H](O)[C@H](OC(N)=O)[C@@H]1O)c1c[nH]cn1.[Br-] [BLEOMYCIN A2]
Not Active: IC50 [1] | IC50 [2] | Ki [2] | IC50 [3] | IC50 [4] | IC50 (Insulin receptor) | IC50 [5] | IC50 [6] | IC50 (Cytochrome P450 3A4) | Ki (Cytochrome P450 3A4) | IC50 [7] | Ki [7]

CN(Cc1cc(Br)cc(Br)c1N)C1CCCCC1 [BROMHEXINE]
Not Active: IC50 [1] | IC50 [2] | Ki [2] | IC50 [3] | IC50 [4] | IC50 (Insulin receptor) | IC50 [5] | IC50 [6] | IC50 (Cytochrome P450 3A4) | Ki (Cytochrome P450 3A4) | IC50 [7] | Ki [7]

COPPER(II) OXIDE
Not Active: IC50 [1] | Ki [1] | IC50 [2] | Ki [2] | IC50 [3] | Ki [3] | IC50 [4] | Ki [4] | IC50 (Insulin receptor) | Ki (Insulin receptor) | IC50 [5] | Ki [5] | IC50 [6] | Ki [6] | IC50 (Cytochrome P450 3A4) | Ki (Cytochrome P450 3A4) | IC50 [7] | Ki [7]

CC(CN1c2ccccc2Sc2ccccc21)N(C)C (stereo not given) [PROMETHAZINE]
Not Active: IC50 [1] | IC50 [2] | Ki [2] | IC50 [3] | IC50 [4] | IC50 (Insulin receptor) | IC50 [5] | IC50 [6] | IC50 (Cytochrome P450 3A4) | Ki (Cytochrome P450 3A4) | IC50 [7] | Ki [7]

CC(C)(c1ccc(O)cc1)c1ccc(O)cc1 [BISPHENOL A]
Not Active: IC50 [1] | IC50 [2] | Ki [2] | IC50 [3] | IC50 [4] | IC50 (Insulin receptor) | IC50 [5] | IC50 [6] | IC50 (Cytochrome P450 3A4) | Ki (Cytochrome P450 3A4) | IC50 [7] | Ki [7]

c1ccc2sc(SSc3nc4ccccc4s3)nc2c1 [BENZOTHIAZYL DISULFIDE]
Not Active: IC50 [1] | IC50 [2] | Ki [2] | IC50 [3] | IC50 [4] | IC50 (Insulin receptor) | IC50 [5] | IC50 [6] | IC50 (Cytochrome P450 3A4) | Ki (Cytochrome P450 3A4) | IC50 [7] | Ki [7]

CC(=O)Nc1ccc2c(c1)Cc1ccccc1-2 [2-ACETYLAMINOFLUORENE]
Not Active: IC50 [1] | IC50 [2] | Ki [2] | IC50 [3] | IC50 [4] | IC50 (Insulin receptor) | IC50 [5] | IC50 [6] | IC50 (Cytochrome P450 3A4) | Ki (Cytochrome P450 3A4) | IC50 [7] | Ki [7]

Cc1cc(C(C)(C)C)c(O)c(C)c1CC1=NCCN1 [OXYMETAZOLINE]
Not Active: IC50 [1] | IC50 [2] | Ki [2] | IC50 [3] | IC50 [4] | IC50 (Insulin receptor) | IC50 [5] | IC50 [6] | IC50 (Cytochrome P450 3A4) | Ki (Cytochrome P450 3A4) | IC50 [7] | Ki [7]
